Experiments:
Assay in all cases: viability relative to DMSO control (fraction); higher = less drug effect (more viable cells)
Conditions in all cases: 48 h
[1] = system: primary ALL patient cells (S048)
In short: (§1)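 Primary mononuclear tumour cells (Ficoll-isolated from blood or bone marrow, or processed lymph node; fresh or cryopreserved) were plated at 4 × 10^4 cells per well in 384-well plates with pre-plated compounds at five concentrations, one well each. Medium was RPMI-1640 with penicillin/streptomycin, L-glutamine and human serum, at 37 °C and 5% CO2 for 48 h. Viability was read as CellTiter-Glo luminescence relative to the median of 16 inner DMSO wells.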

[2] = system: primary ALL patient cells (S088)
In short: as §1

[3] = system: primary AML patient cells (S002)
In short: as §1

[4] = system: primary AML patient cells (S009)
In short: as §1

[5] = system: primary AML patient cells (S017)
In short: as §1

[6] = system: primary AML patient cells (S019)
In short: as §1

[7] = system: primary AML patient cells (S021)
In short: as §1

[8] = system: primary AML patient cells (S025)
In short: as §1

[9] = system: primary AML patient cells (S055)
In short: as §1

[10] = system: primary AML patient cells (S060)
In short: as §1

[11] = system: primary AML patient cells (S071)
In short: as §1

[12] = system: primary AML patient cells (S072)
In short: as §1

[13] = system: primary AML patient cells (S079)
In short: as §1

[14] = system: primary AML patient cells (S089)
In short: as §1

[15] = system: primary AML patient cells (S091)
In short: as §1

[16] = system: primary B-PLL patient cells (S016)
In short: as §1

[17] = system: primary DLBCL patient cells (S082)
In short: as §1

[18] = system: primary FL patient cells (S022)
In short: as §1

[19] = system: primary FL patient cells (S087)
In short: as §1

[20] = system: primary MCL patient cells (S053)
In short: as §1

SMILES: COc1cccc2c1C(=O)c1c(O)c3c(c(O)c1C2=O)C[C@@](O)(C(C)=O)C[C@@H]3O[C@H]1C[C@H](N)[C@H](O)[C@H](C)O1 [Daunorubicin]
- viability ([1]; 0.0016 µM): 1.02
- viability ([1]; 0.008 µM): 0.731
- viability ([1]; 0.04 µM): 0.12
- viability ([1]; 0.2 µM): 0.0694
- viability ([1]; 1 µM): 0.0144
- viability ([2]; 0.0016 µM): 1.13
- viability ([2]; 0.008 µM): 0.849
- viability ([2]; 0.04 µM): 0.235
- viability ([2]; 0.2 µM): 0.0841
- viability ([2]; 1 µM): 0.0273
- viability ([3]; 0.0016 µM): 1.04
- viability ([3]; 0.008 µM): 0.983
- viability ([3]; 0.04 µM): 0.505
- viability ([3]; 0.2 µM): 0.323
- viability ([3]; 1 µM): 0.241
- viability ([4]; 0.0016 µM): 1.1
- viability ([4]; 0.008 µM): 0.833
- viability ([4]; 0.04 µM): 0.722
- viability ([4]; 0.2 µM): 0.378
- viability ([4]; 1 µM): 0.0702
- viability ([5]; 0.0016 µM): 1.1
- viability ([5]; 0.008 µM): 1.13
- viability ([5]; 0.04 µM): 1.07
- viability ([5]; 0.2 µM): 0.745
- viability ([5]; 1 µM): 0.0449
- viability ([6]; 0.0016 µM): 1.38
- viability ([6]; 0.008 µM): 1.33
- viability ([6]; 0.04 µM): 0.56
- viability ([6]; 0.2 µM): 0.395
- viability ([6]; 1 µM): 0.102
- viability ([7]; 0.0016 µM): 1.09
- viability ([7]; 0.008 µM): 0.972
- viability ([7]; 0.04 µM): 0.424
- viability ([7]; 0.2 µM): 0.216
- viability ([7]; 1 µM): 0.145
- viability ([8]; 0.0016 µM): 1.03
- viability ([8]; 0.008 µM): 0.784
- viability ([8]; 0.04 µM): 0.453
- viability ([8]; 0.2 µM): 0.431
- viability ([8]; 1 µM): 0.0369
- viability ([9]; 0.0016 µM): 1.03
- viability ([9]; 0.008 µM): 1.05
- viability ([9]; 0.04 µM): 0.991
- viability ([9]; 0.2 µM): 0.904
- viability ([9]; 1 µM): 0.0407
- viability ([10]; 0.0016 µM): 1.16
- viability ([10]; 0.008 µM): 1.14
- viability ([10]; 0.04 µM): 1.07
- viability ([10]; 0.2 µM): 1.14
- viability ([10]; 1 µM): 0.0333
- viability ([11]; 0.0016 µM): 1.04
- viability ([11]; 0.008 µM): 0.272
- viability ([11]; 0.04 µM): 0.128
- viability ([11]; 0.2 µM): 0.118
- viability ([11]; 1 µM): 0.095
- viability ([12]; 0.0016 µM): 1.18
- viability ([12]; 0.008 µM): 1.04
- viability ([12]; 0.04 µM): 0.844
- viability ([12]; 0.2 µM): 0.589
- viability ([12]; 1 µM): 0.0642
- viability ([13]; 0.0016 µM): 1.03
- viability ([13]; 0.008 µM): 1.08
- viability ([13]; 0.04 µM): 0.78
- viability ([13]; 0.2 µM): 0.659
- viability ([13]; 1 µM): 0.0276
- viability ([14]; 0.0016 µM): 1.09
- viability ([14]; 0.008 µM): 1.16
- viability ([14]; 0.04 µM): 0.289
- viability ([14]; 0.2 µM): 0.132
- viability ([14]; 1 µM): 0.0299
- viability ([15]; 0.0016 µM): 0.998
- viability ([15]; 0.008 µM): 0.777
- viability ([15]; 0.04 µM): 0.515
- viability ([15]; 0.2 µM): 0.558
- viability ([15]; 1 µM): 0.0819
- viability ([16]; 0.0016 µM): 1.21
- viability ([16]; 0.008 µM): 0.74
- viability ([16]; 0.04 µM): 0.0721
- viability ([16]; 0.2 µM): 0.0359
- viability ([16]; 1 µM): 0.0137
- viability ([17]; 0.0016 µM): 1.1
- viability ([17]; 0.008 µM): 1.07
- viability ([17]; 0.04 µM): 0.838
- viability ([17]; 0.2 µM): 0.714
- viability ([17]; 1 µM): 0.0208
- viability ([18]; 0.0016 µM): 0.966
- viability ([18]; 0.008 µM): 0.964
- viability ([18]; 0.04 µM): 0.803
- viability ([18]; 0.2 µM): 0.331
- viability ([18]; 1 µM): 0.304
- viability ([19]; 0.0016 µM): 1.13
- viability ([19]; 0.008 µM): 1.03
- viability ([19]; 0.04 µM): 0.856
- viability ([19]; 0.2 µM): 0.693
- viability ([19]; 1 µM): 0.588
- viability ([20]; 0.0016 µM): 1.12
- viability ([20]; 0.008 µM): 0.692
- viability ([20]; 0.04 µM): 0.363
- viability ([20]; 0.2 µM): 0.307
- viability ([20]; 1 µM): 0.446
